Values of other authors as cited in paper PMC5601361, “Targeting the Receptor for Advanced Glycation Endproducts (RAGE): A Medicinal Chemistry Perspective” (Journal of Medicinal Chemistry, 2017).
“Also recorded” adds a separate entry of the source.

Key:
[1] = parameters: method as in PMID 25533401
human RAGE-Aβ1–42 = conditions: at 20 μM; ELISA on human RAGE-Aβ1–42
[2] = test system: Wistar rats treated with AGEs; parameters: method as in PMID 26738988; conditions: ip 1 mg/kg/day for 4 weeks
aortas of aged rats = test system: aortas of aged rats; parameters: method as in PMID 25160740
[3] = test system: RAGE-transfected CHO cells
Aβ = test system: Aβ; parameters: method as in PMID 26899576; conditions: 50 μM
APPswe/PS1 mice = conditions: ip 100 mg/kg
[4] = test system: RAGE-overexpressing SH-SY5Y cells
[5] = parameters: method as in PMID 26771209
human brain tissue = test system: human brain tissue; parameters: method as in PMID 26771209
[6] = parameters: method as in PMID 26771209; remark: listed apart in the source
rats = test system: rats; parameters: method as in PMID 25757085, PMID 20223279
diabetic mice = test system: diabetic mice; parameters: method as in PMID 18245563, PMID 26807573, PMID 14568011
[7] = test system: immune-deficient mice implanted with cancer cells; parameters: method as in PMID 22718861; conditions: ip delivery
[8] = test system: pancreatic cancer cell lines; parameters: method as in PMID 22718861; conditions: several cancer cell lines
human RAGE = target: human RAGE; parameters: method as in PMID 22493510, PMID 21347371; conditions: SPR on human RAGE
tumor cell = test system: tumor cell; parameters: method as in PMID 23421467; conditions: in vitro and in vivo

In the case of `CN(C)C1CCN(CCOc2cccc(Nc3nc(-c4ccc(Cl)cc4)cc(-c4ccc(Cl)cc4)n3)c2)C1` (stereo not drawn) [Compound 5], the “solubility compared to 3” value [1] is given as “improved” and the “inhibitory activity compared with another compound” value (human RAGE-Aβ1–42) is given as “improved RAGE-Aβ1–42 inhibition”.

In the case of `O=C(c1ccc(Cl)cc1)N(Cc1ccccc1)C1CCCCC1` [Compound 12, N-Benzyl-N-cyclohexyl-4-chlorobenzamide], the “binding to immobilized Aβ” value (sRAGE) is given as “did not bind”, the “Aβ1–40, Aβ1–42, S100B, HMGB1 binding to RAGE” value (sRAGE; in vitro) is given as “• inhibited Aβ1–40, Aβ1–42, S100B, HMGB1 binding to RAGE (in vitro)” and the “Aβ expression and APP production, NF-κB-mediated Aβ production, inflammatory response, ROS and lipid peroxidation” value [2] is given as “reduction”. The antioxidant enzyme activity [2] was “increased”, the “Aβ1–40 and Aβ1–42 levels in brain (cortex, hippocampus)” value (APPsw/0 mice) was “reducing their levels in the cortex and the hippocampus; also recorded: • reduced Aβ1–40 and Aβ1–42 levels in brain” and the “RAGE actions at the BBB and in the brain” value (APPsw/0 mice) was “• blocked RAGE actions at the BBB and in the brain”. The “RAGE-mediated influx of circulating Aβ1–40 and Aβ1–42 into the brain” value (APPsw/0 mice) was “inhibited; also recorded: • inhibition of Aβ influx in the brain (in vivo)”, the “binding specificity in the CNS” value (APPsw/0 mice) was “bound exclusively to RAGE” and the “neuronal oxidative stress, microglia activation, neuroinflammation” value (APPsw/0 mice) was “reduced Aβ-induced RAGE-dependent oxidative stress in neurons, suppressed microglia activation, and neuroinflammation”. For the same compound, the “cognitive performance and cerebral blood flow” value (APPsw/0 mice; aged APPsw/0 mice) was “• normalized cognitive performance and cerebral blood flow in aged APPsw/0 mice”, the “soluble APP β protein, p65, NF-κB and BACE1 mRNA levels in cortex and hippocampus” value (APPsw/0 mice; ip 1 mg/kg daily for 2 months) was “reduced” and the dose not toxic (APPsw/0 mice; ip, 15–17-month-old APPsw/0 mice) was “up to 500 mg/kg”. For the same compound, the BBB permeability was “acceptable BBB permeability”, the GSH/GSSG ratio (aortas of aged rats) was “increased” and the “malondialdehyde and ROS production” value (aortas of aged rats) was “reduced”. The “toxicity in RAGE-transfected CHO cells” value ([3]; 10 μM) was “nontoxic”, the “cytotoxicity / toxicology profile in vitro and in vivo” value ([3]; cell culture and rodents) was “good toxicology profile; also recorded: • low cytotoxicity in vitro and in vivo” and the “Aβ1–40-induced NF-κB activation, BACE1 expression, cytokines” value ([3]; in vitro and in vivo) was “• reduced Aβ1–40-induced NF-κB activation, BACE1 expression, cytokines (in vitro and in vivo)”. The “RAGE-mediated cellular oxidative stress, BACE1 mRNA, BACE1 activity, nuclear NF-κB levels” value ([3]; induced by Aβ1–40 and Aβ1–42) was “reduced”.

For `O=C1CCC[C@@H]2[C@H]3CCCN4CCC[C@@H](CN12)[C@@H]34` [Compound 14, matrine, reference compound], the “Aβ aggregation or fibrillation” value (Aβ) is given as “prevents Aβ aggregation or fibrillation”, the “brain Aβ, NF-κB, BACE1 levels” value (APPswe/PS1 mice) is given as “reduces” and the “proinflammatory cytokines (TNF-α and IL-1β)” value (APPswe/PS1 mice) is given as “downregulates”. The “transport across the BBB” value (APPswe/PS1 mice; AD transgenic mice) was “is transported across the BBB”, the Aβ-induced cytotoxicity [4] was “inhibits Aβ-induced cytotoxicity” and the “RAGE-Aβ signaling pathway (NF-κB and BACE1 expression levels)” value ([4]; 50 μM) was “decrease of NF-κB and BACE1 expression levels”. For the same compound, the “Aβ1–42, NF-κB, BACE1 and cytokines” value ([4]; in vitro and in vivo) was “• reduced Aβ1–42, NF-κB, BACE1 and cytokines (in vitro and in vivo)”.

In the case of `O=C(c1ccc([18F])cc1)N(Cc1ccccc1)C1CCCCC1` [[^18F]13], the “metabolism in rat liver microsomes” value [5] is listed as “rapidly metabolized”, the “uptake in frontal cortex of AD compared with healthy control tissue” value (human brain tissue) is listed as “higher uptake” and the “time of peak after iv injection” value [6] is listed as at most 3 min. For the same compound, the “washout over the PET scan” value [6] was “virtually complete washout” and the “nonspecific binding in vivo” value ([6]; iv injection) was “significant nonspecific binding to the white matter”.

For `O=C(O)c1cccnc1C(=O)O` [quinolinic acid], the “neuronal death in the striatum” value (rats) is given as “dose-dependent neuronal death in the striatum”.

For `C[C@H](CCC(=O)O)[C@H]1CC[C@H]2[C@@H]3[C@@H](O)C[C@@H]4C[C@H](O)CC[C@]4(C)[C@H]3CC[C@]12C` [ursodeoxycholic acid], the antiatherogenic activity (diabetic mice) is listed as “antiatherogenic activity”.

In the case of “ELKVLMEKEL [Compound 19, RAGE antagonistic peptide developed from the structure of S100P]”, the “tumor growth, metastasis and inflammation” value [7] is given as “reduction of tumor growth, metastasis, and inflammation” and the “RAGE activation of NF-κB, inflammation, tumor growth and metastasis” value [8] is given as “reduced; also recorded: inhibition of NF-κB, inflammation, tumor growth and metastasis”.

In the case of heparin [Compound 17], the Kd (human RAGE) is given as 3.1 nM and the “tumor cell growth, migration, invasion and distant metastasis” value (tumor cell) is given as “inhibited tumor cell growth, migration, invasion, and distant metastasis”.
